# Experimental data reported in patent US10316017B2, “COT modulators and methods of use thereof” (Gilead Sciences, Inc., priority 2015, dated 2019).
# Molecular target: T1, human Cot catalytic domain (30-397 amino acids) (Homo sapiens, UniProt P41279)
# T1 construct: Purified recombinant human Cot catalytic domain (30-397 amino acids) was purchased from Cama Biosciences; purchased Cama Biosciences (so in the source)
# Experiment: High Throughput Cot Biochemical Assay (KinEASE TR-FRET)
# Conditions: Cot KinEASE TR-FRET, 400 μM ATP; read-out: IC50 HTRF
# Protocol: Example 61: High Throughput Cot Biochemical Assay
# In this assay, Cot-catalyzes the phosphorylation of a XL665-labeled peptide substrate. Europium conjugated phospho-tyrosine specific antibody binds the resulting phosphorylated peptide. […] Purified recombinant human Cot catalytic domain (30-397 amino acids) was purchased from Cama Biosciences. […] The standard 5 μL reaction mixture contained 400 μM ATP, 1 μM STK3 peptide, 5 nM of Cot in reaction buffer (10 mM MOPS, pH 7.0, 0.02% NaN3, 0.5 mg/mL BSA, 10 mM MgOAc, 1 mM DTT, 0.025% NP-40, 1.5% glycerol) and 0.1% DMSO.
# T1 sequence (P41279 30-397): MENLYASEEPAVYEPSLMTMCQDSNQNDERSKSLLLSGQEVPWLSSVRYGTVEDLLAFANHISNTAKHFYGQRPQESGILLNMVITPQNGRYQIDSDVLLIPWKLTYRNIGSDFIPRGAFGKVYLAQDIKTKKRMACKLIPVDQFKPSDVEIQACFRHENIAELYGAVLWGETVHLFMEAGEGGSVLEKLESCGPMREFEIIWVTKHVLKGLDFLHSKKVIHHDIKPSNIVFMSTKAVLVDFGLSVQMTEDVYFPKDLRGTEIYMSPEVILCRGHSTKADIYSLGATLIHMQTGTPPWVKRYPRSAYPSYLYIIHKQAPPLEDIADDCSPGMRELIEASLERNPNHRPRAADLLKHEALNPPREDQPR
row,Compound,IC50 [nM]
1,"CN(c1ccc(F)c(Cl)c1)c1c(C#N)cnc2c(Cl)cc(N[C@@H](c3ccc(Cl)cc3)c3cn(C4CCN(C(C)(C)C)CC4)nn3)cc12 [Example 749, (S)-6-(((1-(1-(tert-butyl)piperidin-4-yl)-1H-1,2,3-triazol-4-yl)(4-chlorophenyl)methyl)amino)-8-chloro-4-((3-chloro-4-fluorophenyl)(methyl)amino) quinoline-3-carbonitrile]",3210
2,"COc1cc(Nc2c(C#N)cnc3c(Cl)cc(N[C@@H](c4ccc(Cl)cc4)c4cn(C5CCN(C(C)(C)C)CC5)nn4)cc23)c(Cl)cc1Cl [Example 751, (S)-6-(((1-(1-(tert-butyl)piperidin-4-yl)-1H-1,2,3-triazol-4-yl)(4-chlorophenyl)methyl)amino)-8-chloro-4-((2,4-dichloro-5-methoxyphenyl)amino)quinoline-3-carbonitrile]",> 10000
3,"CC(C)(C)N1CCC(n2cc([C@@H](Nc3cc(Cl)c4ncc(C#N)c(Nc5ccn(CC(F)(F)F)n5)c4c3)c3ccc(Cl)cc3)nn2)CC1 [Example 752, (S)-6-(((1-(1-(tert-butyl)piperidin-4-yl)-1H-1,2,3-triazol-4-yl)(4-chlorophenyl)methyl)amino)-8-chloro-4-((1-(2,2,2-trifluoroethyl)-1H-pyrazol-3-yl)amino)quinoline-3-carbonitrile]",> 10000
4,"CC(C)(C)N1CCC(n2cc([C@@H](Nc3cc(Cl)c4ncc(C#N)c(Nc5ccc(F)c(S(C)(=O)=O)c5)c4c3)c3ccc(Cl)cc3)nn2)CC1 [Example 754, (S)-6-(((1-(1-(tert-butyl)piperidin-4-yl)-1H-1,2,3-triazol-4-yl)(4-chlorophenyl)methyl)amino)-8-chloro-4-((4-fluoro-3-(methylsulfonyl)phenyl)amino) quinoline-3-carbonitrile]",2530
5,"CC(C)(C)N1CCC(n2cc([C@@H](Nc3ccc4nc(N)c(C#N)c(Nc5ccc(F)c(Cl)c5)c4c3)c3ccc(Cl)cc3)nn2)CC1 [Example 760, (S)-2-amino-6-(((1-(1-(tert-butyl)piperidin-4-yl)-1H-1,2,3-triazol-4-yl)(4-chlorophenyl)methyl)amino)-4-((3-chloro-4-fluorophenyl)amino)quinoline-3-carbonitrile]",2340
6,"CC(C)(C)N1CCC(n2cc([C@@H](Nc3cc(Cl)c4ncc(C#N)c(Nc5cccc(C(F)F)c5)c4c3)c3ccc(Cl)cc3)nn2)CC1 [Example 761, (S)-6-(((1-(1-(tert-butyl)piperidin-4-yl)-1H-1,2,3-triazol-4-yl)(4-chlorophenyl)methyl)amino)-8-chloro-4-((3-(difluoromethyl)phenyl)amino) quinoline-3-carbonitrile]",484
7,"CC(C)(C)N1CCC(n2cc([C@@H](Nc3cc(Cl)c4ncc(C#N)c(Nc5cccc(C(F)(F)F)c5)c4c3)c3ccc(Cl)cc3)nn2)CC1 [Example 762, (S)-6-(((1-(1-(tert-butyl)piperidin-4-yl)-1H-1,2,3-triazol-4-yl)(4-chlorophenyl)methyl)amino)-8-chloro-4-((3-(trifluoromethyl)phenyl)amino) quinoline-3-carbonitrile]",513
8,"COc1cc2ncc(C#N)c(Nc3ccc(F)c(Cl)c3)c2cc1N[C@@H](c1ccc(Cl)cc1)c1cn(C2CCN(C(C)(C)C)CC2)nn1 [Example 769, (S)-6-(((1-(1-(tert-butyl)piperidin-4-yl)-1H-1,2,3-triazol-4-yl)(4-chlorophenyl)methyl)amino)-4-((3-chloro-4-fluorophenyl)amino)-7-methoxyquinoline-3-carbonitrile]",> 10000
9,"Cc1cc2ncc(C#N)c(Nc3ccc(F)c(Cl)c3)c2cc1NC(c1ccc(F)cc1)c1cn(C)nn1 (stereo not drawn) [Example 773, 4-((3-chloro-4-fluorophenyl)amino)-6-(((4-fluorophenyl)(1-methyl-1H-1,2,3-triazol-4-yl)methyl)amino)-7-methylquinoline-3-carbonitrile]",1860
10,"CC(C)(C)N1CCC(n2cc([C@@H](Nc3cc(Cl)c4ncc(C#N)c(Nc5cccc(-n6nccn6)c5)c4c3)c3ccccc3)nn2)CC1 [Example 785, (S)-4-((3-(2H-1,2,3-triazol-2-yl)phenyl)amino)-6-(((1-(1-(tert-butyl)piperidin-4-yl)-1H-1,2,3-triazol-4-yl)(phenyl)methyl)amino)-8-chloroquinoline-3-carbonitrile]",782
11,"CC1(C)C[C@H](n2cc([C@H](Nc3cc(Cl)c4ncc(C#N)c(Nc5ccc(F)c(Cl)c5)c4c3)c3ccccc3)nn2)CCN1 [Example 788, 8-chloro-4-((3-chloro-4-fluorophenyl)amino)-6-(((R)-(1-((R)-2,2-dimethylpiperidin-4-yl)-1H-1,2,3-triazol-4-yl)(phenyl)methyl)amino) quinoline-3-carbonitrile]",1010
12,"CC1(C)C[C@H](n2cc([C@H](Nc3cc(Cl)c4ncc(C#N)c(Nc5ccc(F)c(Cl)c5)c4c3)c3ccccc3)nn2)CCN1 [Example 789, 8-chloro-4-((3-chloro-4-fluorophenyl)amino)-6-(((R)-(1-((R)-2,2-dimethylpiperidin-4-yl)-1H-1,2,3-triazol-4-yl)(phenyl)methyl)amino) quinoline-3-carbonitrile]",657
13,"COc1cc2ncc(C#N)c(Nc3ccc(F)c(Cl)c3)c2cc1NC(c1ccc(F)cc1)c1cn(C)nn1 (stereo not drawn) [Example 798, 4-((3-chloro-4-fluorophenyl)amino)-6-(((4-fluorophenyl)(1-methyl-1H-1,2,3-triazol-4-yl)methyl)amino)-7-methoxyquinoline-3-carbonitrile]",7920
14,"N#Cc1cnc2ccc(NC(c3ccc(F)cc3)c3ccncn3)cc2c1Nc1ccc(F)c(Cl)c1 (stereo not drawn) [Example 799, 4-((3-chloro-4-fluorophenyl)amino)-6-(((4-fluorophenyl)(pyrimidin-4-yl)methyl)amino)quinoline-3-carbonitrile]",1480
15,"N#Cc1cnc2c(Cl)cc(NC(c3ccc(F)cc3)c3ncccn3)cc2c1Nc1ccc(F)c(Cl)c1 (stereo not drawn) [Example 800, 8-chloro-4-((3-chloro-4-fluorophenyl)amino)-6-(((4-fluorophenyl)(pyrimidin-2-yl)methyl)amino)quinoline-3-carbonitrile]",> 10000
16,"N#Cc1cnc2c(Cl)cc(NC(c3ccc(F)cc3)c3cnccn3)cc2c1Nc1ccc(F)c(Cl)c1 (stereo not drawn) [Example 801, 8-chloro-4-((3-chloro-4-fluorophenyl)amino)-6-(((4-fluorophenyl)(pyrazin-2-yl)methyl)amino)quinoline-3-carbonitrile]",1070

# Stronger by IC50, values ahead:
row,IC50 [nM],Compound
1,444,"N#Cc1cnc2c(Cl)cc(NC(c3ccc(F)cc3)c3nccs3)cc2c1Nc1ccc(F)c(Cl)c1 (stereo not drawn) [Example 782, 8-chloro-4-((3-chloro-4-fluorophenyl)amino)-6-(((4-fluorophenyl)(thiazol-2-yl)methyl)amino)quinoline-3-carbonitrile]"
2,324,"CC(C)(C)N1CCC(n2cc([C@@H](Nc3cc(Cl)c4ncc(C#N)c(Nc5cccnc5)c4c3)c3ccc(Cl)cc3)nn2)CC1 [Example 772, (S)-6-(((1-(1-(tert-butyl)piperidin-4-yl)-1H-1,2,3-triazol-4-yl)(4-chlorophenyl)methyl)amino)-8-chloro-4-(pyridin-3-ylamino)quinoline-3-carbonitrile]"
3,291,"N#Cc1cnc2c(Cl)cc(NC(c3ccc(F)cc3)c3ncco3)cc2c1Nc1ccc(F)c(Cl)c1 (stereo not drawn) [Example 783, 8-chloro-4-((3-chloro-4-fluorophenyl)amino)-6-(((4-fluorophenyl)(oxazol-2-yl)methyl)amino)quinoline-3-carbonitrile]"
4,105,"CN(C)Cc1ccc([C@H](Nc2cc(Cl)c3ncc(C#N)c(Nc4ccc(F)c(Cl)c4)c3c2)c2cn(C3CCN(C(C)(C)C)CC3)nn2)cc1 [Example 735, (S)-6-(((1-(1-(tert-butyl)piperidin-4-yl)-1H-1,2,3-triazol-4-yl)(4-((dimethylamino)methyl)phenyl)methyl)amino)-8-chloro-4-((3-chloro-4-fluorophenyl)amino)quinoline-3-carbonitrile]"
5,93,"CC(C)(C)N1CCC(n2cc([C@@H](Nc3cc(Cl)c4ncc(C#N)c(Nc5cncc(F)c5)c4c3)c3ccc(Cl)cc3)nn2)CC1 [Example 771, (S)-6-(((1-(1-(tert-butyl)piperidin-4-yl)-1H-1,2,3-triazol-4-yl)(4-chlorophenyl)methyl)amino)-8-chloro-4-((5-fluoropyridin-3-yl)amino)quinoline-3-carbonitrile]"
6,60,"CC(C)(C)N1CCC(n2cc([C@@H](Nc3cc(Cl)c4ncc(C#N)c(Nc5ccc(C#N)c(Cl)c5)c4c3)c3ccc(Cl)cc3)nn2)CC1 [Example 770, (S)-6-(((1-(1-(tert-butyl)piperidin-4-yl)-1H-1,2,3-triazol-4-yl)(4-chlorophenyl)methyl)amino)-8-chloro-4-((3-chloro-4-cyanophenyl)amino)quinoline-3-carbonitrile]"
7,23,"CC(C)(C)N1CCC(n2cc([C@@H](Nc3cc(Cl)c4ncc(C#N)c(Nc5ccc(F)c(Br)c5)c4c3)c3ccc(Cl)cc3)nn2)CC1 [Example 763, (S)-4-((3-bromo-4-fluorophenyl)amino)-6-(((1-(1-(tert-butyl)piperidin-4-yl)-1H-1,2,3-triazol-4-yl)(4-chlorophenyl)methyl)amino)-8-chloroquinoline-3-carbonitrile]"
8,5,"N#Cc1cnc2c(Cl)cc(N[C@@H](c3ccccc3)c3cn(C4CC5(CNC5)C4)nn3)cc2c1Nc1ccc(F)c(Cl)c1 [Example 775, (S)-6-(((1-(2-azaspiro[3.3]heptan-6-yl)-1H-1,2,3-triazol-4-yl)(phenyl)methyl)amino)-8-chloro-4-((3-chloro-4-fluorophenyl)amino)quinoline-3-carbonitrile]"
